Tested on: native sensory-neuron gated ion channels
Assay: Patch-clamp electrophysiology of sensory neurons in primary culture
Assay type: cell-based, rat
Conditions: n=3
From the text: This example describes another in vitro assessment of the inhibitory activity of the compounds of the present invention utilizing patch-clamp electrophysiology of sensory neurons in primary culture.
Sensory neurons can be isolated and cultured in vitro from different animal species. The most widely used protocols use sensory neurons isolated from neonatal (Eckert, et al. (1997) J Neurosci Methods 77:183-190) and embryonic (Vasko, et al. (1994) J Neurosci 14:4987-4997) rat. […] Electrophysiology is performed similarly as described above in Example 2. In the voltage-clamp mode, trans-membrane currents are recorded. Compounds A and H at 1 μM inhibit the pH 6.5-induced inward current. In the current-clamp mode, change in the trans-membrane potential are recorded. Under acidic conditions (e.g., pH 6.5) the membrane depolarizes, leading to the firing of action potentials. Compounds A and H at 1 μM inhibit the acid-induced membrane depolarization and reduce the ensuing rate of action potential firing.

COc1ccc(F)cc1-c1cc2c(c3c1CCN(C)C3)NC(=O)C2=NO [Compound A, 5-(5-fluoro-2-methoxyphenyl)-6,7,8,9-tetrahydro-3-(hydroxyimino)-8-methyl-1H-pyrrolo[3,2-h]isoquinoline-2(3H)-one]
acid-induced membrane depolarization (current-clamp mode, 1 μM): inhibit | rate of action potential firing (current-clamp mode, acidic conditions, 1 μM): reduce | activity of native sensory-neuron gated ion channels: effectively modulate | pH 6.5-induced inward current (voltage-clamp mode, 1 μM): inhibit
